Laboratory results published in US8785470B2, “Heterocyclic compounds and uses thereof” (Infinity Pharmaceuticals, Inc., priority 2011, dated 2014).

Key:
[1] = tested on: Balb/c splenic B cells; test: B cell activation and proliferation assay; assay type: cell-based; conditions: Mus musculus, column bins 1 μM to 100 nM (given as 100-1000) and Less than 100 nM, read-out: B cell proliferation EC50
Procedure: The ability of one or more subject compounds to inhibit B cell activation and proliferation is determined according to standard procedures known in the art. For example, an in vitro cellular proliferation assay is established that measures the metabolic activity of live cells. The assay is performed in a 96 well microtiter plate using Alamar Blue reduction. Balb/c splenic B cells are purified over a Ficoll-Paque™ PLUS gradient followed by magnetic cell separation using a MACS B cell Isolation Kit (Miletenyi). Cells are plated in 90 μl at 50.000 cells/well in B Cell Media (RPMI+10% FBS+Penn/Strep+50 μME5 mM HEPES). A compound provided herein is diluted in B Cell Media and added in a 10 μl volume. Plates are incubated for 30 min at 37° C. and 5% CO2 (0.2% DMSO final concentration). A 50 μl B cell stimulation cocktail is then added containing either 10 μg/ml LPS or 5 μg/ml F(ab′)2 Donkey anti-mouse IgM plus 2 ng/ml recombinant mouse IL4 in B Cell Media. Plates are incubated for 72 hours at 37° C. and 5% CO2. A volume of 15 μL of Alamar Blue reagent is added to each well and plates are incubated for 5 hours at 37° C. and 5% CO2. Alamar Blue fluoresce is read at 560Ex/590Em, and IC50 or EC50 values are calculated using GraphPad Prism 5.

[2] = biological target: T1, PI3Kβ (Homo sapiens, UniProt P42338); test: PI3-Kinase HTRF assay, PI3Kβ; assay type: biochemical; conditions: bins Greater than 10 μM and Greater than 1 μM to 10 μM; 10 μM ATP, PIP2 at 10 μM
T1 construct: purchased Millipore Corporation 14-603-K
Text: (§1) A PI3-Kinase HTRF® assay kit (cat No. 33-016) purchased from Millipore Corporation was used to screen compounds provided herein. This assay used specific, high affinity binding of the GRPI pleckstrin homology (PH) domain to PIP3, the product of a Class 1A or 1B PI3 Kinase acting on its physiological substrate PIP2. During the detection phase of the assay, a complex was generated between the GST-tagged PH domain and biotinylated short chain PIP3. The biotinylated PIP3 and the GST-tagged PH domain recruited fluorophores (Streptavidin-Allophycocyanin and Europium-labeled anti-GST respectively) to form the fluorescence resonance energy transfer (FRET) architecture, generating a stable time-resolved FRET signal. The FRET complex was disrupted in a competitive manner by non-biotinylated PIP3, a product formed in the PI3 Kinase assay.
(§2) PI3 Kinase α, β, γ and δ activity was assayed using the PI3 Kinase HTRF® assay kit (catalogue No. 33-016) purchased from Millipore Corporation. Purified recombinant PI3Kα (catalogue No. 14-602-K), PI3Kβ (catalogue No. 14-603-K), PI3Kγ (catalogue No. 14-558-K) and PI3Kδ (catalogue No. 14-604-K) were obtained from Millipore Corporation. Purified recombinant PI3K enzyme was used to catalyze the phosphorylation of phosphatidylinositol 4,5-bisphosphate (PIP2 at 10 μM) to phosphatidylinositol 3,4,5-trisphosphate (PIP3) in the presence of 10 μM ATP. The assay was carried out in 384-well format and detected using a Perkin Elmer EnVision Xcite Multilabel Reader. Emission ratios were converted into percent inhibitions and imported into GraphPad Prism software. The concentration necessary to achieve inhibition of enzyme activity by 50% (IC50) was calculated using concentrations ranging from 20 μM to 0.1 nM (12-point curve). IC50 values were determined using a nonlinear regression model available in GraphPad Prism 5. […]

[3] = biological target: T2, PI3Kα (Homo sapiens, UniProt P42336); test: PI3-Kinase HTRF assay, PI3Kα; assay type: biochemical; conditions: bins Greater than 10 μM and Greater than 1 μM to 10 μM; 10 μM ATP, PIP2 at 10 μM; read-out: IC50 P13Kα
T2 construct: purchased Millipore Corporation 14-602-K
Text: as §1, §2

T2 sequence (P42336 whole entry): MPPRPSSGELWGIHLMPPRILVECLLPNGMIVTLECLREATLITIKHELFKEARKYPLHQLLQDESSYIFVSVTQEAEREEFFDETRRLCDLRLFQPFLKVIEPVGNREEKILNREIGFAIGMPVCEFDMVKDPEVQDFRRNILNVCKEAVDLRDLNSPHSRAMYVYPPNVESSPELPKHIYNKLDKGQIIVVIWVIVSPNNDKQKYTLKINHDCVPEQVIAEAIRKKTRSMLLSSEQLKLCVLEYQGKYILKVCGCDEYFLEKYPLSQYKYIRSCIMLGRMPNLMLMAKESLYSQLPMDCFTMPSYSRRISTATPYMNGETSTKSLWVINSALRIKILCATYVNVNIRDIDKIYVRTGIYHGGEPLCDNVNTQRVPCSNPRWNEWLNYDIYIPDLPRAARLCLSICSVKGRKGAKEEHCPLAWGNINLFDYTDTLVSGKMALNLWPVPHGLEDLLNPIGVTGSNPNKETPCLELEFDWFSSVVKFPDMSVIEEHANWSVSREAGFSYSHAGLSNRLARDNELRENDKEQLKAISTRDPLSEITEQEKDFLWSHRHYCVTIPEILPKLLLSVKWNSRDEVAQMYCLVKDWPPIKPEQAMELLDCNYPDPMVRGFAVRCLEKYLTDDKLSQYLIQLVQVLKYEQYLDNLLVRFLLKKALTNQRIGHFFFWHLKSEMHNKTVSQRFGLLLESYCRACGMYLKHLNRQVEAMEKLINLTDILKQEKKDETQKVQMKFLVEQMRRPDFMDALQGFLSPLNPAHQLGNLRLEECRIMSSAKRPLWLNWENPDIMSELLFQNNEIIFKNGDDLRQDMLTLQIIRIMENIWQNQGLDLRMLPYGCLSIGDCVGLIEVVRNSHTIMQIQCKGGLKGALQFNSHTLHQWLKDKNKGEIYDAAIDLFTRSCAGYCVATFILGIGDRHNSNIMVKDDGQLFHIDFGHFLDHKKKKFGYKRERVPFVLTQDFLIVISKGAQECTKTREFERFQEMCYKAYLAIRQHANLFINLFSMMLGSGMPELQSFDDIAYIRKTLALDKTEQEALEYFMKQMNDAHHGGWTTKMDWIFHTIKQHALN
T2 sequence (P27986 whole entry partner): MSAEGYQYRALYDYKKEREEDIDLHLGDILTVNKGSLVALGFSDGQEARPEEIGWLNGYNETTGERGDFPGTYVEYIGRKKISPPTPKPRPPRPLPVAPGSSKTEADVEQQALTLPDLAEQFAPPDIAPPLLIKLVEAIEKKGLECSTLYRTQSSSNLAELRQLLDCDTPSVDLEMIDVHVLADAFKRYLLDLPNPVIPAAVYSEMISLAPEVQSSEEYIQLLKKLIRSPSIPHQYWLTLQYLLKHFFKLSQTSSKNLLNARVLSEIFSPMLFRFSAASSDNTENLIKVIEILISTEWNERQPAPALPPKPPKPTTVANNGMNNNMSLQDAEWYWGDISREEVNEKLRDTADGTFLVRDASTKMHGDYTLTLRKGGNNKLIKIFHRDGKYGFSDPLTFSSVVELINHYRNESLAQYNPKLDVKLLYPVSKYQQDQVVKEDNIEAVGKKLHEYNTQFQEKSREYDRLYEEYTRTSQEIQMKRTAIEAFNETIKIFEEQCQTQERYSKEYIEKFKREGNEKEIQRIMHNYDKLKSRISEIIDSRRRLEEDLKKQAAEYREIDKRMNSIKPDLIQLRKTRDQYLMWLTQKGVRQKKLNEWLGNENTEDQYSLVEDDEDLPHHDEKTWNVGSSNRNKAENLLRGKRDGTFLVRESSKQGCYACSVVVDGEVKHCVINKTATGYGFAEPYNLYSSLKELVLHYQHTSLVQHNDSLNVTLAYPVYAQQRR
T1 sequence (P42338 whole entry): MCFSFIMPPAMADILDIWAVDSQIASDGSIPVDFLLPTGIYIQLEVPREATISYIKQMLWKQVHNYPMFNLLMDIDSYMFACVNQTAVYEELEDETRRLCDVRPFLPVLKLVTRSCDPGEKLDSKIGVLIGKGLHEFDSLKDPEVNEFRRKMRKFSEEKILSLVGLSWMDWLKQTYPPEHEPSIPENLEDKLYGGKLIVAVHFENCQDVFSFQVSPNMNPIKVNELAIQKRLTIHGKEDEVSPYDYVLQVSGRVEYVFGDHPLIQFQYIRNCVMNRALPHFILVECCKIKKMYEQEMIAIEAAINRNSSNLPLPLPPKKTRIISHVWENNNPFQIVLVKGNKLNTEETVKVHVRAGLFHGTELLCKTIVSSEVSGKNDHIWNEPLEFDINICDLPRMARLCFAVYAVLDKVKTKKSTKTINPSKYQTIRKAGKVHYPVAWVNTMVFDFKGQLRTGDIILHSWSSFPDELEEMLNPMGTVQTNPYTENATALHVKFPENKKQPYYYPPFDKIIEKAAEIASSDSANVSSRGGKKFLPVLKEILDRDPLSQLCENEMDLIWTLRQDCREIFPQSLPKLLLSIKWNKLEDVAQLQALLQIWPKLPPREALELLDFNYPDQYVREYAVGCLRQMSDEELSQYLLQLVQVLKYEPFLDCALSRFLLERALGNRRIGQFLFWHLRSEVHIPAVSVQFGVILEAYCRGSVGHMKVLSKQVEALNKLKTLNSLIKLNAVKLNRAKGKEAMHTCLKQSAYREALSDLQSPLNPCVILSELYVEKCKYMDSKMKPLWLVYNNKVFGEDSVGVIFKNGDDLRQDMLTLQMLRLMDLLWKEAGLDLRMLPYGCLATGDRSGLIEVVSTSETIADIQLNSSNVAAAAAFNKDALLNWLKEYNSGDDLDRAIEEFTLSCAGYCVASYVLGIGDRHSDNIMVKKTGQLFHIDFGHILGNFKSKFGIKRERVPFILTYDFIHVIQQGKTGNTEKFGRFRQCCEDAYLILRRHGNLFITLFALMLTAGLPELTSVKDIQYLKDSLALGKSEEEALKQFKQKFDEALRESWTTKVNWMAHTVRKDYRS
T1 sequence (P27986 whole entry partner): as the sequence (P27986 whole entry partner) above

| SMILES | IC50 [2] [µM] | IC50 [3] [µM] | EC50 [1] [nM] |
| --- | --- | --- | --- |
| Cc1cccc2cc([C@H](C)Nc3nc(N)ncc3C(F)(F)F)n(-c3cccc(F)c3)c(=O)c12 [Compound 16] | 1 to 10 | – | < 100 |
| C[C@H](Nc1nc(N)ncc1C#N)c1cc2cccc(-c3cnc4ccccc4c3)c2c(=O)n1-c1cccc(F)c1 [Compound 23] | 1 to 10 | – | < 100 |
| C[C@H](Nc1nc(N)ncc1C#N)c1cc2cccc(-c3ccnnc3)c2c(=O)n1-c1cccc(F)c1 [Compound 30] | 1 to 10 | – | < 100 |
| C[C@H](Nc1nc(N)ncc1C#N)c1cc2cccc(-c3ccc(Cl)cc3)c2c(=O)n1-c1ccccc1 [Compound 32] | 1 to 10 | 1 to 10 | – |
| C[C@H](Nc1nc(N)ncc1C#N)c1cc2cccc(-c3cccc(Cl)c3)c2c(=O)n1-c1ccccc1 [Compound 34] | 1 to 10 | – | – |
| COc1ccc(-c2cccc3cc([C@H](C)Nc4nc(N)ncc4C#N)n(-c4ccccc4)c(=O)c23)cn1 [Compound 35] | 1 to 10 | 1 to 10 | – |
| COc1cccc(-c2cccc3cc([C@H](C)Nc4nc(N)ncc4C#N)n(-c4ccccc4)c(=O)c23)c1 [Compound 36] | 1 to 10 | – | – |
| C[C@H](Nc1nc(N)ncc1C#N)c1cc2cccc(-c3ccc(F)cc3)c2c(=O)n1-c1ccccc1 [Compound 37] | 1 to 10 | – | – |
| COc1ccc(-c2cccc3cc([C@H](C)Nc4nc(N)ncc4C#N)n(-c4ccccc4)c(=O)c23)cc1 [Compound 38] | 1 to 10 | 1 to 10 | – |
| C[C@H](Nc1nc(N)ncc1C#N)c1cc2cccc(-c3cccc(N(C)C)c3)c2c(=O)n1-c1ccccc1 [Compound 40] | 1 to 10 | – | – |
| Cc1cccc(-c2cccc3cc([C@H](C)Nc4nc(N)ncc4C#N)n(-c4ccccc4)c(=O)c23)c1 [Compound 46] | 1 to 10 | – | – |
| CC(C)Oc1cncc(-c2cccc3cc([C@H](C)Nc4nc(N)ncc4C#N)n(-c4ccccc4)c(=O)c23)c1 [Compound 53] | 1 to 10 | – | – |
| C[C@H](Nc1nc(N)ncc1C#N)c1cc2cccc(CC#N)c2c(=O)n1-c1ccccc1 [Compound 124] | 1 to 10 | – | < 100 |
| COc1cc(-c2cccc3cc([C@H](C)Nc4nc(N)ncc4-c4cnc(OC)s4)n(-c4ccccc4)c(=O)c23)ccn1 [Compound 140] | 1 to 10 | – | < 100 |
| C[C@H](Nc1nc(N)ncc1C#N)c1cc2cccc(O)c2c(=O)n1-c1ccccc1 [Compound 145] | 1 to 10 | – | – |
| COc1cccc(-c2cccc3cc([C@H](C)Nc4nc(N)ncc4C#N)n(-c4ccccc4)c(=O)c23)n1 [Compound 166] | 1 to 10 | – | < 100 |

| SMILES | IC50 [2] [µM] | IC50 [3] [µM] | EC50 [1] [nM] |
| --- | --- | --- | --- |
| C[C@H](Nc1nc(N)ncc1-c1ccncc1)c1cc2cccc(Cl)c2c(=O)n1-c1ccccc1 [Compound 168] | 1 to 10 | – | – |
| COc1cc(-c2cccc3cc([C@H](C)Nc4nc(N)ncc4-c4cnc(C)s4)n(-c4ccccc4)c(=O)c23)ccn1 [Compound 181] | 1 to 10 | – | < 100 |
| C[C@H](Nc1nc(N)ncc1C#N)c1cc2cccc(Cl)c2c(=O)n1-c1ccc(OC(F)(F)F)cc1 [Compound 210] | 1 to 10 | – | – |
| COc1ccc(-n2c([C@H](C)Nc3nc(N)ncc3C#N)cc3cccc(Cl)c3c2=O)cc1 [Compound 214] | 1 to 10 | – | – |
| C[C@H](Nc1nc(N)ncc1C#N)c1cc2cccc(-c3ccc(=O)n(C4CCCC4)c3)c2c(=O)n1-c1ccccc1 [Compound 233] | 1 to 10 | – | < 100 |
| C[C@H](Nc1nc(N)ncc1C#N)c1cc2cccc(-c3ccc(=O)n(C4CCOCC4)c3)c2c(=O)n1-c1ccccc1 [Compound 235] | 1 to 10 | – | – |
| Cc1ccc(-n2c([C@H](C)Nc3nc(N)ncc3C#N)cc3cccc(Cl)c3c2=O)cc1 [Compound 252] | 1 to 10 | – | 100 to 1000 |
| C[C@H](Nc1nc(N)ncc1C#N)c1cc2cccc(Cl)c2c(=O)n1-c1c(F)cc(F)cc1F [Compound 258] | 1 to 10 | – | – |
| C[C@H](Nc1nc(N)ncc1C#N)c1cc2cccc(Cl)c2c(=O)n1-c1cccc(F)c1F [Compound 282] | 1 to 10 | – | – |
| C[C@H](Nc1nc(N)ncc1C#N)c1cc2cccc(Cl)c2c(=O)n1Cc1ccccc1 [Compound 303] | 1 to 10 | – | – |
| Cc1nc(-c2cnc(N)nc2N[C@@H](C)c2cc3cccc(Cl)c3c(=O)n2-c2ccccc2)sc1C [Compound 366] | 1 to 10 | – | – |
| C[C@H](Nc1nc(N)ncc1-c1cccs1)c1cc2cccc(Cl)c2c(=O)n1-c1ccccc1 [Compound 367] | 1 to 10 | – | < 100 |
| C[C@H](Nc1nc(N)ncc1-c1ccccn1)c1cc2cccc(Cl)c2c(=O)n1-c1ccccc1 [Compound 375] | 1 to 10 | – | – |
| C[C@H](Nc1nc(N)ncc1-c1cnn(C)c1)c1cc2cccc(Cl)c2c(=O)n1-c1ccccc1 [Compound 376] | 1 to 10 | – | – |
| C[C@H](Nc1nc(N)ncc1-c1ccc(O)cc1)c1cc2cccc(Cl)c2c(=O)n1-c1ccccc1 [Compound 436] | 1 to 10 | – | – |

More lines, main results first:

| IC50 [2] [µM] | IC50 [3] [µM] | SMILES | EC50 [1] [nM] |
| --- | --- | --- | --- |
| 1 to 10 | – | COc1cncc(-c2cccc3cc([C@H](C)Nc4nc(N)ncc4C(N)=O)n(-c4ccccc4)c(=O)c23)c1 [Compound 10, 2-amino-4-((S)-1-(8-(5-methoxypyridin-3-yl)-1-oxo-2-phenyl-1,2-dihydroisoquinolin-3-yl)ethylamino)pyrimidine-5-carboxamide] | < 100 |
| 1 to 10 | 1 to 10 | C[C@H](Nc1nc(N)ncc1C#N)c1cc2cccc(-c3cncc(O)c3)c2c(=O)n1-c1ccccc1 [Compound 13, 2-amino-4-((S)-1-(8-(5-hydroxypyridin-3-yl)-1-oxo-2-phenyl-1,2-dihydroisoquinolin-3-yl)ethylamino)pyrimidine-5-carbonitrile] | < 100 |
| 1 to 10 | – | COc1cncc(-c2cccc3cc([C@H](C)Nc4nc(N)ncc4C#N)n(-c4cccc(F)c4)c(=O)c23)c1 [Compound 27] | < 100 |
| 1 to 10 | – | COc1cc(-c2cccc3cc([C@H](C)Nc4nc(N)ncc4C#N)n(-c4cccc(F)c4)c(=O)c23)ccn1 [Compound 28] | < 100 |
| 1 to 10 | 1 to 10 | C[C@H](Nc1nc(N)ncc1C#N)c1cc2cccc(-c3ccc(N(C)C)cc3)c2c(=O)n1-c1ccccc1 [Compound 42] | < 100 |
| 1 to 10 | 1 to 10 | C[C@H](Nc1nc(N)ncc1C#N)c1cc2cccc(-c3ccc(C#N)cc3)c2c(=O)n1-c1ccccc1 [Compound 43] | < 100 |
| 1 to 10 | 1 to 10 | Cc1ncc(-c2cccc3cc([C@H](C)Nc4nc(N)ncc4C#N)n(-c4ccccc4)c(=O)c23)s1 [Compound 68] | – |
| 1 to 10 | 1 to 10 | COc1ncc(-c2cccc3cc([C@H](C)Nc4nc(N)ncc4C#N)n(-c4ccccc4)c(=O)c23)s1 [Compound 70] | – |
| 1 to 10 | – | COc1cc(-c2cccc3cc([C@H](C)Nc4nc(N)ncc4C#N)n(-c4ccccc4)c(=O)c23)cnc1C [Compound 100] | < 100 |
| 1 to 10 | – | COc1cc(-c2cccc3cc([C@H](C)Nc4nc(N)ncc4C#N)n(-c4ccccc4)c(=O)c23)cnc1OC [Compound 192] | < 100 |
| 1 to 10 | – | C[C@H](Nc1nc(N)ncc1C#N)c1cc2cccc(Cl)c2c(=O)n1CC(C)(C)C [Compound 246] | 100 to 1000 |
| 1 to 10 | – | C[C@H](Nc1nc(N)ncc1C#N)c1cc2cccc(Cl)c2c(=O)n1-c1ccc2c(c1)OCO2 [Compound 261] | – |
| 1 to 10 | – | Cc1cnc(-c2cnc(N)nc2N[C@@H](C)c2cc3cccc(Cl)c3c(=O)n2-c2ccccc2)s1 [Compound 368] | – |
| 1 to 10 | – | C[C@H](Nc1nc(N)ncc1-c1ccsc1)c1cc2cccc(Cl)c2c(=O)n1-c1ccccc1 [Compound 373] | – |
